{"source": "patent US20120077836A1", "about": "“METHODS OF ADMINISTERING (4AR,10AR)-1-N-PROPYL-1,2,3,4,4A,5,10,10A-OCTAHYDROBENZO [G] QUINOLINE-6,7-DIOL AND RELATED COMPOUNDS ACROSS THE ORAL MUCOSA, THE NASAL MUCOSA OR THE SKIN AND PHARMACEUTICAL COMPOSITIONS THEREOF” (priority 2009, published 2012)", "test": "Intravenous and buccal pharmacokinetic study in the minipig", "format": "in vivo", "description": "The test article was compound 10. The vehicles for the test article were Sterile saline (0.9% NaCl) (intravenous administration) supplied by Baxter, Norfolk or Ascorbic acid reconstituted in Water for Injection (buccal administration) supplied by VWR International, Leicestershire. Formulations were prepared on the day of dosing.\nThree male minipigs of the Göttingen ApS strain were supplied by Ellegaard Göttingen, Dalmose, Denmark. At initiation of dosing, animals were approximately 15 to 17 weeks old. Each animal was dosed once on three separate occasions according to the following study design:\nAnimals were deprived of food overnight and anaesthetised with isoflurane in oxygen (administered by facemask), prior to each dosing occasion.\nIntravenous administrations were performed by slow manual injection via a temporary catheter placed in the ear vein whilst under anaesthesia, animals were allowed to recover from the anaesthesia immediately after dosing. Whilst anaesthetised, a catheter was inserted into the jugular vein and secured in place for the purpose of blood collection. The catheter was filled with heparin (250 iu/mL in 0.9% sodium chloride). The exterior portion of the catheter was routed from the ventral neck to the dorsum of the minipig and protected by bandaging. The distal end of the catheter was capped and placed in a re-sealable pouch within the bandage. The jugular catheter was retained in place and flushed with heparinised saline every 24 hours.\nBuccal administrations were performed by applying the test formulation to the buccal membrane for 5 minutes while the animal was anaesthetised. Any residual formulation remaining in the mouth after the 5 minute application was […]. Animals were allowed to recover from the anaesthesia immediately after dosing.\n, all animals on Day 3 following buccal administration of a low dose and all animals on Day 5 following buccal administration of a high dose for pharmacokinetic analysis. The samples (1.0 mL) were collected from the jugular vein (via catheter) into tubes containing EDTA anticoagulant. Prior to addition of the blood sample, 100 microL of a stabiliser (2% beta-mercaptoethanol containing 20 mg/mL ascorbic acid) was added to each pot. The stabiliser was prepared fresh on each day of sample collection. Samples were collected as follows: • Day 1: 5, 10, 15, 30 and 45 minutes and 1, 2, 4, 6, 8, 12 and 16 hours post-dose • Day 3: pre-dose and at 5, 10, 15, 30 and 45 minutes and 1, 2, 4, 6, 8, 12, 16 and 24 hours post-dose • Day 5: pre-dose and at 5, 10, 15, 30 and 45 minutes and 1, 2, 4, 6, 8, 12, 16 and 24 hours post-dose\nThe times of the blood sampling were generally adhered to. The greatest deviation from the scheduled timepoints was one minute late at the 5 minute timepoint on Day 3. The blood samples were centrifuged within one hour of sample collection and the resultant plasma was frozen prior to analysis.\nThe plasma concentrations of compound 10 were determined after solid phase extraction of the plasma samples followed by high performance liquid chromatography with tandem mass spectrometric detection (LC-MS/MS) using a sample volume of about 100 microL.\nInternal standard solution, containing the internal standard of compound 10 was added to thawed plasma samples (100 microL aliquot). The SPE plate (Oasis HLB, 10 mg) was conditioned with methanol (500 microL) followed by water (500 microL). The sample (approx. 500 microL aliquot) was transferred to the pre-conditioned SPE plate. The sample was then passed through the cartridge, which was then washed with water:methanol (90:10 v/v, 0.5 mL). The sample was then eluted into a fresh 96 well polypropylene collection plate with 20 mM ammonium formate (aq): acetonitrile: formic acid (50:50:2 v/v/v, 250 microL). The organic component of the eluted samples was then evaporated under a gentle stream of nitrogen until approximately 50% of the original volume was remaining. […]", "key": {"[1]": {"conditions": "IV 0.0025 mg/kg, individual animals 1-3, hydrobromide, 0.0025 mg/kg"}, "[2]": {"conditions": "buccal 0.010 mg/kg, individual animals 1-3, hydrobromide"}, "[3]": {"conditions": "buccal 40 μg/kg versus 10 μg/kg, males"}, "[4]": {"conditions": "buccal 0.040 mg/kg, individual animals 1-3, hydrobromide"}, "[5]": {"conditions": "buccal, 0.010 to 0.040 mg/kg (4-fold dose increase)"}}, "note": "Where “and” joins values, the source holds several entries; their conditions need not be identical. Equal entries are not always repeated. Structures can show the parent of a compound that is named as a salt. Where two headings read alike, the source gives them in different places."}
{"smiles": "CCCN1CCC[C@@H]2Cc3c(ccc(O)c3O)C[C@H]21", "note": "[compound 10, (4aR,10aR)-1-n-Propyl-1,2,3,4,4a,5,10,10a-octahydro-benzo[g]quinoline-6,7-diol hydrobromide]", "values": [{"measurement": "Plasma concentration Day 1 Hour 0.08", "setting": "[1]", "result": "1.72 ng/mL and 1.92 ng/mL"}, {"measurement": "Plasma concentration Day 1 Hour 0.17", "setting": "[1]", "result": "0.976 ng/mL and 1.26 ng/mL"}, {"measurement": "Plasma concentration Day 1 Hour 0.25", "setting": "[1]", "result": "1.17 ng/mL and 0.828 ng/mL"}, {"measurement": "Plasma concentration Day 1 Hour 0.5", "setting": "[1]", "result": "0.922 ng/mL and 0.536 ng/mL"}, {"measurement": "Plasma concentration Day 1 Hour 0.75", "setting": "[1]", "result": "0.656 ng/mL and 0.667 ng/mL"}, {"measurement": "Plasma concentration Day 1 Hour 1", "setting": "[1]", "result": "0.432 ng/mL and 0.451 ng/mL"}, {"measurement": "Plasma concentration Day 1 Hour 2", "setting": "[1]", "result": "0.196 ng/mL and 0.352 ng/mL"}, {"measurement": "Plasma concentration Day 1 Hour 4", "setting": "[1]", "result": "0.0763 ng/mL and 0.115 ng/mL"}, {"measurement": "Plasma concentration Day 1 Hour 6", "setting": "[1]", "result": "0.0562 ng/mL and 0.0756 ng/mL"}, {"measurement": "Plasma concentration Day 1 Hour 8", "setting": "[1]", "result": "0.0339 ng/mL and 0.0407 ng/mL"}, {"measurement": "Plasma concentration Day 1 Hour 12", "setting": "[1]", "result": "0.0299 ng/mL and 0.0209 ng/mL"}, {"measurement": "Plasma concentration Day 1 Hour 16", "setting": "IV 0.0025 mg/kg, individual animals 1-3, values below LLOQ 10 pg/mL estimated, hydrobromide, 0.0025 mg/kg", "result": "0.00925 ng/mL and 0.0101 ng/mL"}, {"measurement": "time of maximum plasma concentration", "setting": "IV bolus 0.0025 mg/kg, first sampling time", "result": 5, "unit": "min"}, {"measurement": "time of maximum plasma concentration", "setting": "buccal 0.010 mg/kg and 0.040 mg/kg", "result": "about 0.75 hours"}, {"measurement": "Plasma concentration Day 1 Hour 4", "setting": "[2]", "result": "0.0983 ng/mL and 0.0917 ng/mL and 0.206 ng/mL"}, {"measurement": "Plasma concentration Day 1 Hour 6", "setting": "[2]", "result": "0.0845 ng/mL and 0.0265 ng/mL and 0.0758 ng/mL"}, {"measurement": "Plasma concentration Day 1 Hour 8", "setting": "[2]", "result": "0.0467 ng/mL and 0.0261 ng/mL and 0.0554 ng/mL"}, {"measurement": "Plasma concentration Day 1 Hour 12", "setting": "[2]", "result": "0.0268 ng/mL and 0.0234 ng/mL and 0.157 ng/mL"}, {"measurement": "Plasma concentration Day 3 Hour 0.08", "setting": "[2]", "result": "0.0161 ng/mL and 0.379 ng/mL and 0.0552 ng/mL"}, {"measurement": "Plasma concentration Day 3 Hour 0.17", "setting": "[2]", "result": "0.117 ng/mL and 0.105 ng/mL and 0.221 ng/mL"}, {"measurement": "Plasma concentration Day 3 Hour 0.25", "setting": "[2]", "result": "0.134 ng/mL and 0.185 ng/mL and 0.622 ng/mL"}, {"measurement": "Plasma concentration Day 3 Hour 0.5", "setting": "[2]", "result": "0.758 ng/mL and 0.556 ng/mL"}, {"measurement": "Plasma concentration Day 3 Hour 0.75", "setting": "[2]", "result": "1.1 ng/mL and 0.964 ng/mL"}, {"measurement": "Plasma concentration Day 3 Hour 1", "setting": "[2]", "result": "0.791 ng/mL and 0.817 ng/mL"}, {"measurement": "Plasma concentration Day 3 Hour 2", "setting": "[2]", "result": "0.501 ng/mL and 0.372 ng/mL"}, {"measurement": "Plasma concentration Day 1 Hour 24", "setting": "buccal 0.010 mg/kg, individual animals 1-3, values below LLOQ 10 pg/mL estimated, hydrobromide", "result": "<0.002 ng/mL and 0.00494 ng/mL and 0.0261 ng/mL"}, {"measurement": "Increase in AUC0-∞ (first line)", "setting": "[3]", "result": 12.1, "unit": "fold"}, {"measurement": "Increase in AUC0-∞ (second line)", "setting": "[3]", "result": 18.9, "unit": "fold"}, {"measurement": "increase in Cmax", "setting": "[3]", "result": 11.9, "unit": "fold"}, {"measurement": "Plasma concentration Day 1 Hour 4", "setting": "[4]", "result": "2.56 ng/mL and 0.746 ng/mL and 2.49 ng/mL"}, {"measurement": "Plasma concentration Day 1 Hour 6", "setting": "[4]", "result": "0.781 ng/mL and 0.278 ng/mL and 1.73 ng/mL"}, {"measurement": "Plasma concentration Day 1 Hour 8", "setting": "[4]", "result": "0.445 ng/mL and 0.212 ng/mL and 0.91 ng/mL"}, {"measurement": "Plasma concentration Day 1 Hour 12", "setting": "[4]", "result": "0.272 ng/mL and 0.139 ng/mL and 1.4 ng/mL"}, {"measurement": "Plasma concentration Day 1 Hour 16", "setting": "[4]", "result": "0.142 ng/mL and 0.0584 ng/mL and 0.677 ng/mL"}, {"measurement": "Plasma concentration Day 1 Hour 24", "setting": "[4]", "result": "0.0443 ng/mL and 0.0789 ng/mL and 0.233 ng/mL"}, {"measurement": "Plasma concentration Day 5 Hour 0.08", "setting": "[4]", "result": "2.75 ng/mL and 0.695 ng/mL and 0.427 ng/mL"}, {"measurement": "Plasma concentration Day 5 Hour 0.17", "setting": "[4]", "result": "6.06 ng/mL and 1.93 ng/mL and 1.82 ng/mL"}, {"measurement": "Plasma concentration Day 5 Hour 0.25", "setting": "[4]", "result": "9.14 ng/mL and 3.33 ng/mL and 3.89 ng/mL"}, {"measurement": "Plasma concentration Day 5 Hour 0.5", "setting": "[4]", "result": "8.23 ng/mL and 5.31 ng/mL"}, {"measurement": "Plasma concentration Day 5 Hour 0.75", "setting": "[4]", "result": "10.7 ng/mL and 10.5 ng/mL"}, {"measurement": "Plasma concentration Day 5 Hour 1", "setting": "[4]", "result": "10.8 ng/mL and 9.58 ng/mL"}, {"measurement": "Plasma concentration Day 5 Hour 2", "setting": "[4]", "result": "8.68 ng/mL and 6.34 ng/mL and 3.88 ng/mL"}, {"measurement": "increase in AUC0-∞", "setting": "[5]", "result": 12, "unit": "fold"}, {"measurement": "increase in Cmax", "setting": "[5]", "result": 12, "unit": "fold"}, {"measurement": "concentration at 0.5 h", "setting": "male, Göttingen, in vivo, 0.01 mg/kg, buccal 0.010 mg/kg, individual animals 1-3, read-out: Plasma concentration Day 3 Hour 0.5", "result": 0.943, "unit": "ng/mL"}, {"measurement": "concentration at 0.75 h", "setting": "male, Göttingen, in vivo, 0.01 mg/kg, buccal 0.010 mg/kg, individual animals 1-3, read-out: Plasma concentration Day 3 Hour 0.75", "result": 1.07, "unit": "ng/mL"}, {"measurement": "concentration at 1 h", "setting": "male, Göttingen, in vivo, 0.01 mg/kg, buccal 0.010 mg/kg, individual animals 1-3, read-out: Plasma concentration Day 3 Hour 1", "result": 1, "unit": "ng/mL"}, {"measurement": "concentration at 2 h", "setting": "male, Göttingen, in vivo, 0.01 mg/kg, buccal 0.010 mg/kg, individual animals 1-3, read-out: Plasma concentration Day 3 Hour 2", "result": 0.589, "unit": "ng/mL"}, {"measurement": "concentration at 16 h", "setting": "male, Göttingen, in vivo, 0.01 mg/kg, buccal 0.010 mg/kg, individual animals, below LLOQ 10 pg/mL, estimated, read-out: Plasma concentration Day 1 Hour 16", "result": 0.00691, "unit": "ng/mL"}, {"measurement": "concentration at 16 h", "setting": "male, Göttingen, in vivo, 0.01 mg/kg, buccal 0.010 mg/kg, mean (one animal only), read-out: Plasma concentration Day 1 Hour 16, Mean", "result": 0.00691, "unit": "ng/mL"}, {"measurement": "concentration at 4 h", "setting": "male, Göttingen, in vivo, 0.01 mg/kg, buccal 0.010 mg/kg, mean, read-out: Plasma concentration Day 1 Hour 4, Mean", "result": 0.132, "unit": "ng/mL"}, {"measurement": "concentration at 6 h", "setting": "male, Göttingen, in vivo, 0.01 mg/kg, buccal 0.010 mg/kg, mean, read-out: Plasma concentration Day 1 Hour 6, Mean", "result": 0.0623, "unit": "ng/mL"}, {"measurement": "concentration at 8 h", "setting": "male, Göttingen, in vivo, 0.01 mg/kg, buccal 0.010 mg/kg, mean, read-out: Plasma concentration Day 1 Hour 8, Mean", "result": 0.0427, "unit": "ng/mL"}, {"measurement": "concentration at 12 h", "setting": "male, Göttingen, in vivo, 0.01 mg/kg, buccal 0.010 mg/kg, mean, read-out: Plasma concentration Day 1 Hour 12, Mean", "result": 0.0691, "unit": "ng/mL"}, {"measurement": "concentration at 24 h", "setting": "male, Göttingen, in vivo, 0.01 mg/kg, buccal 0.010 mg/kg, mean, read-out: Plasma concentration Day 1 Hour 24, Mean", "result": 0.0155, "unit": "ng/mL"}, {"measurement": "concentration at 0.08 h", "setting": "male, Göttingen, in vivo, 0.01 mg/kg, buccal 0.010 mg/kg, mean, read-out: Plasma concentration Day 3 Hour 0.08, Mean", "result": 0.15, "unit": "ng/mL"}]}
